For 32 compounds, Ki results are on record in patent publication US9260425B2 (Genetech, Inc., priority 2011, dated 2016).

Usually Ki stands for the dissociation constant of the complex between target and ligand, obtained from inhibition or displacement. Read a low Ki as higher affinity.

Sequence of Pim-1 (P11309 whole entry): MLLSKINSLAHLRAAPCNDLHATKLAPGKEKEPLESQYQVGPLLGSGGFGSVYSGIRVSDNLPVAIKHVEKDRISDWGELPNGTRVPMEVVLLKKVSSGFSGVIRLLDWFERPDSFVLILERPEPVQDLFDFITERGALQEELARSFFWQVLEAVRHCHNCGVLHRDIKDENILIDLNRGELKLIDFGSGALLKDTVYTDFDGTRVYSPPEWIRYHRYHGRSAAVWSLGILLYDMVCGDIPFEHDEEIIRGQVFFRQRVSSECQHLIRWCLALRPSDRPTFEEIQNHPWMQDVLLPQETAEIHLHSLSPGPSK

The assay has as its target Pim-1 (Homo sapiens (Human), UniProt P11309). Briefly: Pim kinase binding activity assay (Example 901), PIM-1 enzyme, Caliper microfluidic peptide phosphorylation. The assay is classed as biochemical. To be noted: 20 pM PIM-1, 10 μM ATP, 1 μM FAM-peptide, 90 minutes at room temperature. On the procedure: Pim Kinase Binding Activity
A fluorescent-labeled Pim-specific peptide substrate, was custom synthesized by American Peptide Company (Sunnyvale, Calif.). Reaction Buffer contained 10 mM HEPES, pH 7.2, 10 mM MgCl2, 0.01% Tween 20, 2 mM DTT. Termination Buffer contained 190 mM HEPES, pH 7.2, 0.015% Brij-35, 0.2% Coating Reagent 3 (Caliper Life Sciences, Hopkinton, Mass.), 20 mM EDTA. Separation Buffer contained 100 mM HEPES, pH 7.2, 0.015% Brij-35, 0.1% Coating Reagent 3, 1:200 Coating Reagent 8 (Caliper Life Sciences, Hopkinton, Mass.), 10 mM EDTA and 5% DMSO.
PIM reactions were carried out in a final volume of 10 μL per well in a 384-well plate. A standard enzymatic reaction, initiated by the addition of 5 μL 2×ATP and test compound to 5 μL of 2× enzyme and FAM-peptide, contained 20 pM PIM-1, 50 pM PIM-2, or 55 pM PIM-3, 1 μM FAM-peptide, and 10 μM ATP, in Reaction Buffer. After 90 minutes of incubation at room temperature, the phosphorylation reaction was stopped by the addition of 10 μL Termination Buffer. The product and substrate in each independent reaction were separated on a 12-sipper microfluidic chip (Caliper Life Sciences, Hopkinton, Mass.) run on a Caliper LC3000® (Caliper Life Sciences, Hopkinton, Mass.). The separation of product and substrate was optimized by choosing voltages and pressure using Caliper's Optimizer software (Hopkinton, Mass.). […] The product and substrate fluorophore were excited at 488 nm and detected at 530 nm. Substrate conversion was calculated from the electropherogram using HTS Well Analyzer software (Caliper Life Sciences, Hopkinton, Mass.). Ki values for the test compound were calculated.
On to `N[C@@H]1CCCN(c2cccc(-c3n[nH]c4cnc(-n5ccnc5)cc34)n2)C1` [Example 369, (R)-1-(6-(5-(1H-imidazol-1-yl)-1H-pyrazolo[3,4-c]pyridin-3-yl)pyridin-2-yl)piperidin-3-amine], for which the Ki was 1.13 nM. In other words, the single-digit nanomolar range.
As for `CCn1cc(-c2cc3c(-c4cccc(N5C[C@@H](N)C[C@@H](F)C5)n4)n[nH]c3cn2)cn1` [Example 385, (3S,5R)-1-(6-(5-(1-ethyl-1H-pyrazol-4-yl)-1H-pyrazolo[3,4-c]pyridin-3-yl)pyridin-2-yl)-5-fluoropiperidin-3-amine], the figure is 0.131 nM; as for `N[C@H]1CCCN(c2nc(-c3n[nH]c4cnc(-c5cccnc5)cc34)ccc2Br)CC1` [Example 312, (S)-1-(3-bromo-6-(5-(pyridin-3-yl)-1H-pyrazolo[3,4-c]pyridin-3-yl)pyridin-2-yl)azepan-4-amine], 0.029 nM.
As for `CCCn1cc(-c2cc3c(-c4cccc(N5CCNCC5)n4)n[nH]c3cn2)cn1` [Example 375, 3-(6-(piperazin-1-yl)pyridin-2-yl)-5-(1-propyl-1H-pyrazol-4-yl)-1H-pyrazolo[3,4-c]pyridine], the figure is 0.039 nM.
The figure for `Cc1ccc(-c2n[nH]c3cnc(-c4cccnc4)cc23)nc1N1CCC[C@@H](O)C1` [Example 309, (R)-1-(3-methyl-6-(5-(pyridin-3-yl)-1H-pyrazolo[3,4-c]pyridin-3-yl)pyridin-2-yl)piperidin-3-ol] is 0.112 nM.
The compound `O=C1N(CC2CCNCC2)CCN1c1n[nH]c2cnc(-c3cccnc3)cc12` [Example 296, 1-(piperidin-4-ylmethyl)-3-(5-(pyridin-3-yl)-1H-pyrazolo[3,4-c]pyridin-3-yl)imidazolidin-2-one] came in with a Ki of 9.74 nM. Compared with the last compound, the Ki is about 87-fold higher.
`N[C@H]1CCC[C@@H](Oc2cccc(-c3n[nH]c4cnc(-c5cccnc5)cc34)n2)C1` [Example 299, (1S,3R)-3-(6-(5-(pyridin-3-yl)-1H-pyrazolo[3,4-c]pyridin-3-yl)pyridin-2-yloxy)cyclohexanamine] displayed a Ki of 0.664 nM.
The figure for `C[C@@H]1CN(c2cccc(-c3n[nH]c4cnc(-c5cnn(CCF)c5)cc34)n2)CCN1` [Example 521, (R)-5-(1-(2-fluoroethyl)-1H-pyrazol-4-yl)-3-(6-(3-methylpiperazin-1-yl)pyridin-2-yl)-1H-pyrazolo[3,4-c]pyridine] is 0.026 nM.
`C#Cc1ccc(-c2n[nH]c3cnc(-c4cccnc4)cc23)nc1N1CCC[C@H](N)C1` [Example 342, (S)-1-(3-ethynyl-6-(5-(pyridin-3-yl)-1H-pyrazolo[3,4-c]pyridin-3-yl)pyridin-2-yl)piperidin-3-amine] displayed a Ki of 0.01 nM. Compared with the last compound, the Ki is about 2.6-fold lower.
The compound `c1cncc(-c2cc3c(-c4ccncc4)n[nH]c3cn2)c1` [Example 194, 5-(pyridin-3-yl)-3-(pyridin-4-yl)-1H-pyrazolo[3,4-c]pyridine] displayed a Ki of 8.77 nM.
The figure for `CCn1cc(-c2cc3c(-c4cccc(N5CCNC(C)(C)C5)n4)n[nH]c3cn2)cn1` [Example 446, 3-(6-(3,3-dimethylpiperazin-1-yl)pyridin-2-yl)-5-(1-ethyl-1H-pyrazol-4-yl)-1H-pyrazolo[3,4-c]pyridine] is 0.029 nM; for `CCn1cc(-c2cc3c(-c4ccc(C)c(N5CCC[C@H](N)C5)n4)n[nH]c3cn2)cn1` [Example 430, (S)-1-(6-(5-(1-ethyl-1H-pyrazol-4-yl)-1H-pyrazolo[3,4-c]pyridin-3-yl)-3-methylpyridin-2-yl)piperidin-3-amine] it is 0.027 nM.
As for `OC1(c2cccc(-c3n[nH]c4cnc(-c5cccnc5)cc34)n2)CCNCC1` [Example 422, 4-(6-(5-(pyridin-3-yl)-1H-pyrazolo[3,4-c]pyridin-3-yl)pyridin-2-yl)piperidin-4-ol], the figure is 300 nM; as for `O[C@@H]1CCCN(c2nc(-c3n[nH]c4cnc(-c5cccnc5)cc34)ccc2Br)C1` [Example 291, (R)-1-(3-bromo-6-(5-(pyridin-3-yl)-1H-pyrazolo[3,4-c]pyridin-3-yl)pyridin-2-yl)piperidin-3-ol], 0.261 nM; as for `c1cc(-c2n[nH]c3cnc(-c4cncs4)cc23)nc(N2CCCCC2)c1` [Example 358, 5-(3-(6-(piperidin-1-yl)pyridin-2-yl)-1H-pyrazolo[3,4-c]pyridin-5-yl)thiazole], 1.22 nM.
The figure for `NC1CCN(C(=O)c2cccc(-c3n[nH]c4cnc(-c5cccnc5)cc34)n2)CC1` [Example 336, (4-aminopiperidin-1-yl)(6-(5-(pyridin-3-yl)-1H-pyrazolo[3,4-c]pyridin-3-yl)pyridin-2-yl)methanone] is 12.7 nM; for `Cn1cc(-c2cc3c(-c4cccc(O[C@@H]5CCCNC5)n4)n[nH]c3cn2)cn1` [Example 264, (R)-5-(1-methyl-1H-pyrazol-4-yl)-3-(6-(piperidin-3-yloxy)pyridin-2-yl)-1H-pyrazolo[3,4-c]pyridine] it is 0.27 nM; for `Cn1cc(-c2cc3c(-c4ccnc(N5CCC[C@@H](N)C5)n4)n[nH]c3cn2)cn1` [Example 364, (R)-1-(4-(5-(1-methyl-1H-pyrazol-4-yl)-1H-pyrazolo[3,4-c]pyridin-3-yl)pyrimidin-2-yl)piperidin-3-amine] it is 0.052 nM.
`N[C@@H]1CCCN(c2nc(-c3n[nH]c4cnc(-c5cccnc5)cc34)ccc2Br)CC1` [Example 313, (R)-1-(3-bromo-6-(5-(pyridin-3-yl)-1H-pyrazolo[3,4-c]pyridin-3-yl)pyridin-2-yl)azepan-4-amine]: the Ki is 0.028 nM.
`Cc1ccc(-c2n[nH]c3cnc(-c4cccnc4)cc23)nc1N1CCN(C)CC1` [Example 257, 3-(5-methyl-6-(4-methylpiperazin-1-yl)pyridin-2-yl)-5-(pyridin-3-yl)-1H-pyrazolo[3,4-c]pyridine] came in with a Ki of 0.032 nM.
The figure for `CN1CC(c2cc3c(-c4ccccc4)n[nH]c3cn2)=CC1=O` [Example 259, 1-methyl-4-(3-phenyl-1H-pyrazolo[3,4-c]pyridin-5-yl)-1H-pyrrol-2(5H)-one] is 920 nM; for `NC[C@@H]1CCCN(c2ccncc2-c2cc3c(-c4ccccc4F)n[nH]c3cn2)C1` [Example 140, (S)-(1-(3-(3-(2-fluorophenyl)-1H-pyrazolo[3,4-c]pyridin-5-yl)pyridin-4-yl)piperidin-3-yl)methanamine] it is 412 nM; for `Cn1cc(-c2cc3c(-c4cccc(N5CCCCC(N)C5)n4)n[nH]c3cn2)cn1` (centres unmarked) [Example 226, 1-(6-(5-(1-methyl-1H-pyrazol-4-yl)-1H-pyrazolo[3,4-c]pyridin-3-yl)pyridin-2-yl)azepan-3-amine] it is 0.051 nM.
Compound `c1cc(-c2n[nH]c3cnc(-c4cnn(C5CC5)c4)cc23)nc(N2CCNCC2)c1` [Example 487, 5-(1-cyclopropyl-1H-pyrazol-4-yl)-3-(6-(piperazin-1-yl)pyridin-2-yl)-1H-pyrazolo[3,4-c]pyridine] returned a Ki of 0.106 nM.
As to `NC1CCCCN(c2cccc(-c3n[nH]c4cnc(-c5cnn(CCF)c5)cc34)n2)C1` (centres unmarked) [Example 514, 1-(6-(5-(1-(2-fluoroethyl)-1H-pyrazol-4-yl)-1H-pyrazolo[3,4-c]pyridin-3-yl)pyridin-2-yl)azepan-3-amine], the Ki turned out to be 0.077 nM. The Ki values of the last two compounds are within 1.5-fold of each other.
Compound `Fc1ccc(-c2cc3c(-c4cccc(N5CCNCC5)n4)n[nH]c3cn2)cn1` [Example 378, 5-(6-fluoropyridin-3-yl)-3-(6-(piperazin-1-yl)pyridin-2-yl)-1H-pyrazolo[3,4-c]pyridine] yielded an inhibitory constant (Ki) of 0.796 nM.
As for `NC[C@H]1CCN(c2cncc(-c3cc4c(-c5ccccc5F)n[nH]c4cn3)c2)C1` [Example 164, (R)-(1-(5-(3-(2-fluorophenyl)-1H-pyrazolo[3,4-c]pyridin-5-yl)pyridin-3-yl)pyrrolidin-3-yl)methanamine], the figure is 1.9 nM; as for `Cc1n[nH]c2cnc(-c3cccnc3)cc12` [Example 101, 3-methyl-5-(pyridin-3-yl)-1H-pyrazolo[3,4-c]pyridine], 190 nM.
In turn, `CCn1cc(-c2cc3c(-c4cccc(N5CCC[C@@](C)(O)C5)n4)n[nH]c3cn2)cn1` [Example 460, (R)-1-(6-(5-(1-ethyl-1H-pyrazol-4-yl)-1H-pyrazolo[3,4-c]pyridin-3-yl)pyridin-2-yl)-3-methylpiperidin-3-ol] gave a Ki of 0.265 nM.
For `CN1CCN(c2cc3c(-c4ccccc4F)n[nH]c3cn2)CC1=O` [Example 339, 4-(3-(2-fluorophenyl)-1H-pyrazolo[3,4-c]pyridin-5-yl)-1-methylpiperazin-2-one], the Ki was 5500 nM.
The compound `NC[C@H]1CCN(c2cncc(-c3n[nH]c4cnc(-c5cccnc5)cc34)c2)C1` [Example 168, (R)-(1-(5-(5-(pyridin-3-yl)-1H-pyrazolo[3,4-c]pyridin-3-yl)pyridin-3-yl)pyrrolidin-3-yl)methanamine] came in with a Ki of 1.6 nM. This Ki is about 3400-fold lower than that of the compound before.
With `NC1CCCN(c2ccncc2-c2cc3c(-c4ccccc4F)n[nH]c3cn2)CC1` (centres unmarked) [Example 139, 1-(3-(3-(2-fluorophenyl)-1H-pyrazolo[3,4-c]pyridin-5-yl)pyridin-4-yl)azepan-4-amine], the Ki is 255 nM.
